Patent US4489089A, “Substituted N-[ω-(1H-imidazol-1-yl)alkyl]-amides” (American Cyanamid Company, priority 1984, dated 1984)

How the values were obtained:
[1] = test system: spontaneously hypertensive rats of the Okamoto strain; experiment: hypotensive activity (mean arterial blood pressure) in spontaneously hypertensive rats; assay type: in vivo; settings: 100 mg/kg or less by gavage, two doses 24 h apart; measured 28 hours after initial dose; mean of 1-3 rats; starting MABP 160±1.5 mm
Experimental: The novel compounds of the present invention are also active hypotensive agents and were tested for hypotensive activity by the method of P. S. Chan and D. Poorvin, Clinical and Experimental Hypertension, 1 (6), 817-830 (1979). Male, 16 week old, spontaneously hypertensive rats of the Okamoto strain, from Taconic Farms, Germantown, N.Y. having an average mean arterial blood pressure of 160±1.5 mm of mercury are used in the test. One to 3 rats are used per test compound. A rat is dosed by gavage with a test compound, suspended in 2% pre-boiled starch at a concentration of 50 mg/ml, at a dose of 100 mg/kg of body weight or less, with 0.9% sodium chloride loading at a dose 25 ml/kg of body weight. A second identical dose of the test compound, without sodium chloride loading is given 24 hours later. At 28 hours after the initial dose, the mean arterial blood pressure (MABP) is measured by the method of Chan and Poorvin vide supra. The procedure is repeated in a second and third rat when necessary. Based on the data obtained and using the three-stage "sequential probability ratio test" statistical method, the critieria for activity or retest are as follows:
If the blood pressure in the first rat is ≤116 mm mercury the compound is considered active. If the blood pressure is between […], a second rat is used. If the average blood pressure of the first and second rats is ≤122 mm the compound is considered active. If the average blood pressure is between 123 and 137 mm, a third rat is used. If the average blood pressure of the three rats is ≤128 mm the compound is considered active. The results of this test on representative compounds of the present invention appear in Table II below.

thromboxane synthetase = target: T1, thromboxane synthetase (Rattus norvegicus, UniProt P49430); experiment: inhibition of thromboxane (TX) formation in rat platelets, TXB2 determined by radio-immunoassay (RIA); assay type: cell-based, Okamoto-Aoki spontaneously hypertensive rats (SHR); settings: 10^-4 M; SHR washed platelets; 10 minutes at 37° C.
T1 construct: The platelets were isolated by centrifuging the PRP for 10 minutes at 1060×g; endogenous in cells; host or cells: washed platelets from arterial blood of Okamoto-Aoki spontaneously hypertensive rats (Taconic Farms)
T1 sequence (P49430 1-533): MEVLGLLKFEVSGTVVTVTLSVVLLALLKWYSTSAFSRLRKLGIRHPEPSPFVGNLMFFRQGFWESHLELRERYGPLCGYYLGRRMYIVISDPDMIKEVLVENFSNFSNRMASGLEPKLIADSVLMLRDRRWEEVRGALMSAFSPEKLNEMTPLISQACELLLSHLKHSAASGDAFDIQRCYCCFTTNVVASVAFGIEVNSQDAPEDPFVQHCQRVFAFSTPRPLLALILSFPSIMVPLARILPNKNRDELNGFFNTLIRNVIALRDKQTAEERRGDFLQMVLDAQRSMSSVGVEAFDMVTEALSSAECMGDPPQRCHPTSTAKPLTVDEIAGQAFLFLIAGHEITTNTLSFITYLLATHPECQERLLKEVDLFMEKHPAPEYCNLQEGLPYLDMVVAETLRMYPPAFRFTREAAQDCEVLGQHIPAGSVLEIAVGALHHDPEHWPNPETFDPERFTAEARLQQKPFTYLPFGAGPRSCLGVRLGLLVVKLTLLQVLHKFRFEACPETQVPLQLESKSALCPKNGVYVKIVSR
Experimental: Under urethan anesthesia, […]. of arterial blood was collected in one ml. of 3.2% sodium citrate in a polystyrene tube from Okamoto-Aoki spontaneously hypertensive rats (SHR) (Taconic Farms, Germantown, NY) between 19 and 24 weeks in age. The blood was diluted with 3 ml. cold saline and centrifuged at room temperature for 15 minutes at 460×g. The platelet rich plasma (PRP) was separated. The platelets were isolated by centrifuging the PRP for 10 minutes at 1060×g and were washed in 4 ml. cold oxygenated Krebs phosphate buffer, pH 7.4. The chilled platelets recovered from centrifuging at 800×g for 10 minutes were resuspended in oxygenated Krebs phosphate buffer and diluted to contain 4.5-6.0×10^4 platelts/μl.
The inhibition of thromboxane (TX) formation was studied by determing the concentration of thromboxane B2 (TXB2), the stable hydrolysis product of TXA2. Assay samples, prepared on ice, contained 200 μl. platelet suspension, 50 μl. saline, and 50 μl. vehicle or drug under study (OKY-1581, UK-37248-01, 1-benzylimidazole, or indomethacin). The samples were incubated for 10 minutes at 37° C. in a metabolic shaker. The reaction was terminated by immersing the tubes in an ice bath and adding 50 μl. of 0.5M citric acid. The samples were centrifuged for 10 minutes in a refrigerated centrifuge and the supernatants thus obtained were decanted and stored at -20° C. The TXB2 content for each sample was determined by a direct radio-immunoassay (RIA) utilizing a TXB2 specific RIA kit purchased from New England Nuclear, Boston, MA and expressed as pg TXB2 formed minute^-1 sample^-1, from which the percent inhibition of TXB2 formation was calculated. The results of this test on representative compounds of this invention appear in Table I

SMILES | inhibition at 100 µM (thromboxane synthetase) [%] | MABP (mean arterial blood pressure) [1] [mm Hg]
O=C(NCCCn1ccnc1)c1ccc([N+](=O)[O-])o1 [Example 16] | 64 | 114
O=C(C=Cc1cccs1)NCCCn1ccnc1 [Example 15, N--[3-(1H--imidazol-1-yl)propyl]-3-(2-thienyl)-2-propenamide] | 100 | –
O=C(NCCCCn1ccnc1)c1cccs1 [Example 31, N--[4-(1H--imidazol-1-yl)butyl]thiophene-2-carboxamide] | 95 | 114
O=C(NCCCn1ccnc1)c1ccoc1 [Example 5, N-[3-(1H-Imidazol-1-yl)propyl]-3-furanecarboxamide] | 78 | 128
O=C(NCCCn1ccnc1)c1ccc(Br)o1 [Example 6, 5-bromo-N--[3-(1H--imidazol-1-yl)propyl]-2-furanecarboxamide] | 82 | –
O=C(NCCCCn1ccnc1)c1ccc(Cl)s1 [Example 30, 5-chloro-N--[4-(1H--imidazol-1-yl)butyl]thiophene-2-carboxamide] | – | 118
O=C(NCCCCn1ccnc1)c1ccco1 [Example 28, N-[4-(1H-Imidazol-1-yl)butyl]-2-furanecarboxamide] | 87 | –
O=C(NCCCn1ccnc1)c1cc(Br)c(Br)s1 [Example 9, 4,5-dibromo-N--[3-(1H--imidazol-1-yl)propyl]-2-thiophenecarboxamide] | 100 | –
O=C(CCCc1cccs1)NCCCn1ccnc1 [Example 17, N--[3-(1H--imidazol-1-yl)propyl]-2-thiophenebutyramide] | – | 121
O=C(NCCCn1ccnc1)C(=O)c1cccs1 [Example 18, N--[3-(1H--imidazol-1-yl)propyl]-α-oxo-thiophene acetamide] | 73 | 125
O=C(C=Cc1ccco1)NCCCn1ccnc1 [Example 14, N--[3-(1H--imidazol-1-yl)propyl]-3-(2-furanyl)-2-propenamide] | 78 | –
O=C(NCCCn1ccnc1)c1ccco1 [Example 1, N-[3-(1H-Imidazol-1-yl)propyl]-2-furanecarboxamide] | 97 | –

Second part, led by results:

inhibition at 100 µM (thromboxane synthetase) [%] | SMILES | MABP (mean arterial blood pressure) [1] [mm Hg]
100 | O=C(NCCCn1ccnc1)c1sc2ccccc2c1Cl [Example 2, 3-chloro-N--[3-(1H--imidazol-1-yl)propyl]benzo[b]thiophene-2-carboxamide] | –
97 | O=C(NCCCn1ccnc1)c1cc2ccccc2o1 [Example 10, N--[3-(1H--imidazol-1-yl)propyl]-2-benzofuranecarboxamide] | –
51 | Cc1cn(CCCNC(=O)c2cccs2)cn1 [Example 25, N--[3-(4-methyl-1H--imidazol-1-yl)propyl]thiophene-2-carboxamide] | –
55 | CCc1nccn1CCCNC(=O)c1sc2ccccc2c1Cl [Example 22, 3-chloro-N--[3-(2-ethyl-1H--imidazol-1-yl)propyl]benzo[b]thiophene-2-carboxamide] | –
95 | O=C(NCCCn1ccnc1)c1ccc(Cl)s1 [Example 19, 5-chloro-N--[3-(1H--imidazol-1-yl)propyl]thiophene-2-carboxamide] | 125
96 | Cc1ccc2c(Cl)c(C(=O)NCCCn3ccnc3)sc2c1 [Example 4, 3-chloro-N--[3-(1H--imidazol-1-yl)propyl]-6-methyl-benzo[b]thiophene-2-carboxamide] | –
96 | O=C(NCCCn1ccnc1)c1sc2cc(F)ccc2c1Cl [Example 3, 3-chloro-6-fluoro-N--[3-(1H--imidazol-1-yl)propyl]benzo[b]thiophene-2-carboxamide] | –
98 | Cc1cn(CCCNC(=O)c2sc3ccccc3c2Cl)cn1 [Example 24, 3-chloro-N--[3-(4-methyl-1H--imidazol-1-yl)propyl]benzo[b]thiophene-2-carboxamide] | –
100 | O=C(NCCCn1ccnc1)c1cc2cc(Cl)ccc2s1 [Example 11, 5-chloro-N--[3-(1H--imidazol-1-yl)propyl]benzo[b]thiophene-2-carboxamide] | –
93 | O=C(NCCCn1ccnc1)c1cccs1 [Example 7, N--[3-(1H--imidazol-1-yl)propyl]-2-thiophenecarboxamide] | –
96 | Cc1ccc(C(=O)NCCCn2ccnc2)s1 [Example 8, N--[3-(1H--imidazol-1-yl)propyl]-5-methyl-2-thiophenecarboxamide] | –
91 | O=C(NCCCCn1ccnc1)c1sc2ccccc2c1Cl [Example 29, 3-chloro-N--[4-(1H--imidazol-1-yl)butyl]benzo[b]thiophene-2-carboxamide] | –
70 | O=C(NCCn1ccnc1)c1sc2ccccc2c1Cl [Example 20, 3-Chloro-N-[2-(1H-imidazol-1-yl)ethyl]benzo[b]thiophene-2-carboxamide] | 117
